We go through ten molecules from patent publication US11976068B2 (CHIMERIX, INC., priority 2015, dated 2024).

The target of one data set is T1, human BCRP (Homo sapiens, UniProt Q9UNQ0).
T1 sequence (Q9UNQ0 1-655): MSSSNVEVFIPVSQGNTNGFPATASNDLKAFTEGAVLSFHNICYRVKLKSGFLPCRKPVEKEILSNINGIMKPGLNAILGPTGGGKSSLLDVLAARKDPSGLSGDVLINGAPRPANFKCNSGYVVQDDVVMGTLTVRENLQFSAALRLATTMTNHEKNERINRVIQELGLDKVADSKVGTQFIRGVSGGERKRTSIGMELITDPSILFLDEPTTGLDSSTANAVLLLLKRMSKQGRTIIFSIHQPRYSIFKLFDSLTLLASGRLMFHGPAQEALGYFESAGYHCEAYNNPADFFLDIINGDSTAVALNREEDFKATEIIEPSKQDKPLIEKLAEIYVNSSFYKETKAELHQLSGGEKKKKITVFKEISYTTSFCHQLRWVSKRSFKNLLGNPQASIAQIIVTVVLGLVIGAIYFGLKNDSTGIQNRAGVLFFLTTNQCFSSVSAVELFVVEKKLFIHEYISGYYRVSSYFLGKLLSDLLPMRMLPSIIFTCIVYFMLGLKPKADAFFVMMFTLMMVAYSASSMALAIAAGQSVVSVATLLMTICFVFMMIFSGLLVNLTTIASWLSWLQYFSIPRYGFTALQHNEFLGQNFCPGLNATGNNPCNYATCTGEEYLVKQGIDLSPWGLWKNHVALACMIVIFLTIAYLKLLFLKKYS
Kind of data set: BCRP inhibition, bidirectional permeability of prazosin in MDCKII-BCRP monolayers. The conditions noted are these: prazosin probe; inhibitor 1 μM Ko134 (positive control).

Another data set relates to human cancer cells. Briefly: Viability of human cancer cells at 72 hours post-treatment. Type of data set: cell-based. As to conditions: change in potency relative to ONC201; viability at 72 hours post-treatment. The method, then:
A number of exemplary analogs of compound (1) were prepared based on the syntheses described here. For each of these compounds, the viability of human cancer cells at 72 hours post-treatment with the compound was measured.

Data set [1] has as its system human colon cancer xenograft. Kind of data set: Human colon cancer xenograft-bearing mice. Type of data set: in vivo. As to conditions: single dose, oral or intraperitoneal, compared to vehicle-treated control cohorts.
The target in another data set is human MDR1 (Homo sapiens, UniProt P08183). As to conditions: digoxin probe; inhibitor 10 μM Valspodar (positive control).
Another data set has as its system CYP 2B6. Kind of data set: CYP mRNA induction in cryopreserved human hepatocytes.
For a further data set, the system named is CYP 3A4. Described as above.
In the next data set the test system is CYP 1A2. The data set is described as above.
Setting [2] is: donor CDP, NC: flumazenil (25 μM).
[3] abbreviates: donor two, NC: flumazenil (25 μM).

Like-named read-outs stand apart in the source and are kept apart here.

Chain of human MDR1 (P08183 whole entry): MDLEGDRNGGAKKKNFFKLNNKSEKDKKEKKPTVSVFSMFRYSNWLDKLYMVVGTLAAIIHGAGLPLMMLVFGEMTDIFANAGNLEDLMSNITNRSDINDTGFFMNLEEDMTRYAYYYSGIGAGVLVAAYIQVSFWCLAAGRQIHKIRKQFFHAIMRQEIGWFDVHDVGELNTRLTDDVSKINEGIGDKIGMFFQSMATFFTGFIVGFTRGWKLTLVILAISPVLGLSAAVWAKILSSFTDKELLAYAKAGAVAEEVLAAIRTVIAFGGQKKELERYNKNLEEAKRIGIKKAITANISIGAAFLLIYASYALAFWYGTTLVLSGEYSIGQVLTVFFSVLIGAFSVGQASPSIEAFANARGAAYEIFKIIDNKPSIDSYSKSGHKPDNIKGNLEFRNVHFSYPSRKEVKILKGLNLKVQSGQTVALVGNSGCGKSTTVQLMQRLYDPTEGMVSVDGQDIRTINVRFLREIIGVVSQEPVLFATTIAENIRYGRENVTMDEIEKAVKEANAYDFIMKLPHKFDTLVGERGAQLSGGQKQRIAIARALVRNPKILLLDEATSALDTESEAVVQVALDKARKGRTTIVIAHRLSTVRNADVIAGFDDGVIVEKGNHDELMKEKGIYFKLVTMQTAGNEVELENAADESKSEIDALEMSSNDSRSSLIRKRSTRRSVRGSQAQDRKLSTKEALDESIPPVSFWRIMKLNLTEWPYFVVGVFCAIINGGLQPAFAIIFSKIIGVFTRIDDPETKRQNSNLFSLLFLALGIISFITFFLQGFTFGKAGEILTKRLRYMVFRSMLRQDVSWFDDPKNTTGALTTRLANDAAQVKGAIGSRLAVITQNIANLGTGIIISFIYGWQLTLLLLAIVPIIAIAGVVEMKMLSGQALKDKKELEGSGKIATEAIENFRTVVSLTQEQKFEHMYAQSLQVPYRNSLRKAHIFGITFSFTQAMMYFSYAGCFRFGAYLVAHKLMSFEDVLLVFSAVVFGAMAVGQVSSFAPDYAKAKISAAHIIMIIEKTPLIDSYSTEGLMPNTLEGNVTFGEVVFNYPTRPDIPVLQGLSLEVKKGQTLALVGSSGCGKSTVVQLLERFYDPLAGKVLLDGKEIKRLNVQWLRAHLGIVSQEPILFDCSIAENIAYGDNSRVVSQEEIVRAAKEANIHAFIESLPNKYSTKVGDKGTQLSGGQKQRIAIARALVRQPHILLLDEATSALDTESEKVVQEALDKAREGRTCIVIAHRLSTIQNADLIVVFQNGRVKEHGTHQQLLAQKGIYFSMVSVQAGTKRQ

In the case of `CC(C)C[C@H]1c2[nH]c3ccccc3c2C[C@H]2C(=O)N[C@@H](CCC(=O)OC(C)(C)C)C(=O)N21` [Ko134, reference compound], the “% Inhibition (Efflux Ratio)” value on human BCRP worked out at 98.7%.

On to `O=C1C2=C(CCN(Cc3ccccc3)C2)N2CCN=C2N1Cc1cc(F)cc(F)c1` [ONC210], for which, in the data set with human cancer cells, the “Relative Potency” value is given as “A (A Indicates a potency increase of >2-fold of ONC201)”.

As to `O=C1C2=C(CCN(Cc3ccccc3)C2)N2CCN=C2N1Cc1ccc(Cl)c(Cl)c1` [ONC211], the “Relative Potency” value with human cancer cells is “A (A Indicates a potency increase of >2-fold of ONC201)”.

On to `O=C1C2=C(CCN(Cc3ccccc3)C2)N2CCN=C2N1Cc1ccc(C(F)(F)F)cc1` [ONC212], for which the tumor volume entry in data set [1] was “significant reduction of tumor volume”.

With `O=C1C2=C(CCN(Cc3ccccc3)C2)N2CCN=C2N1Cc1ccccc1F` [ONC217], the “Relative Potency” value with human cancer cells is recorded as “B (B Indicates potency that is within 2-fold of ONC201)”.

Consider `O=C1C2=C(CCN(Cc3ccccc3)C2)N2CCN=C2N1CC1CCON1` (stereo not drawn) [ONC222], for which the “Relative Potency” value with human cancer cells was “B (B Indicates potency that is within 2-fold of ONC201)”.

As to `C/C=C/C[C@@H](C)C(=O)[C@H]1C(=O)N[C@@H](C(C)C)C(=O)N(C)CC(=O)N(C)[C@@H](CC(C)C)C(=O)N[C@@H](C(C)C)C(=O)N(C)[C@@H](CC(C)C)C(=O)N[C@@H](C)C(=O)N[C@H](C)C(=O)N(C)[C@@H](CC(C)C)C(=O)N(C)[C@@H](CC(C)C)C(=O)N(C)[C@@H](C(C)C)C(=O)N1C` [Valspodar, reference compound], the “% Inhibition (Efflux Ratio)” value at human MDR1 is 96.8%.

Consider `CCOC(=O)c1ncn2c1CN(C)C(=O)c1cc(F)ccc1-2` [flumazenil], for which the “mRNA Induction Fold” value in the data set with CYP 2B6 (setting [2]) stood at 1.16 fold; with CYP 2B6 (setting [3]), 1.27 fold; with CYP 3A4 it was 1.37 fold; in the data set with CYP 3A4 (CYP 3A4, donor CDP, NC: flumazenil (25 μM)), 1.03 fold; in the data set with CYP 3A4 (CYP 3A4, donor two, NC: flumazenil (25 μM)), 0.93 fold; with CYP 1A2 (setting [2]), 1.16 fold. For the same molecule, the “mRNA Induction Fold” value with CYP 1A2 (donor one, NC: flumazenil (25 μM)) is 1.31 fold; in the data set with CYP 1A2 (setting [3]), 1.34 fold.

Turning to `COc1ccc2[nH]c([S+]([O-])Cc3ncc(C)c(OC)c3C)nc2c1` (stereo not drawn) [omeprazole], the “mRNA Induction Fold” value in the data set with CYP 1A2 (donor CDP, PC: omeprazole (50 μM)) is listed as 28.71 fold; in the data set on CYP 1A2 (donor one, PC: omeprazole (50 μM)), 35.53 fold; in the data set with CYP 1A2 (donor two, PC: omeprazole (50 μM)) it was 31.06 fold.

On to `CCC1(c2ccccc2)C(=O)NC(=O)NC1=O` [phenobarbital], for which the “mRNA Induction Fold” value in the data set on CYP 2B6 (donor CDP, PC: phenobarbital (750 μM)) is on record as 8.56 fold; with CYP 2B6 (donor one, PC: phenobarbital (750 μM)), 14.38 fold; with CYP 2B6 (donor two, PC: phenobarbital (750 μM)), 8.98 fold.
